# Columns and labels:
# [1] = system: acetylated tubulin, acetylated histone H3, acetylated histone H4 and p21 in MDA-MB-231 cell lines; assay: Western blot analysis in MDA-MB-231 cell line; type: cell-based
# U937 xenograft = U937 xenograft model in vivo antitumor assay
# [2] = system: class IIa HDACs (MDA-MB-231 cell lysate); settings: class IIa-specific substrate, NA: not active at 10 μM
smiles,measurement,setting,value
CCCC(CCC)C(=O)N[C@H](COc1ccc(/C=C/C(=O)NO)cc1OC)Cc1c[nH]c2ccccc12 [Compound 17a],effect on acetylated tubulin level,"[1]; 1 μM, 3 h and 24 h, MDA-MB-231, compared with SAHA",almost no effect
same,effect on histone H4 acetylation with time,"[1]; 1 μM, 3 h vs 24 h, MDA-MB-231",maintained even increased
same,effects on the levels of histone acetylation and p21 expression,"[1]; 1 μM, MDA-MB-231, especially after 24 h of treatment",comparable even superior to SAHA
same,cell permeability (by monitoring intracellular acetylation levels),[1]; MDA-MB-231 cell line,cell permeable
same,toxic signs in liver and spleen,"U937 xenograft; U937 xenograft mice, once daily by oral gavage for three weeks",no evident toxic signs in liver and spleen
same,body weight loss,"U937 xenograft; mouse, in vivo, po",no significant body weight loss
same,IC50 class IIa cell lysate,[2],no obvious inhibition

# Reference: publication PMC3593252 (ACS medicinal chemistry letters, 2013)
